According to PubChem BioAssay AID1919013 (Molecular Pharmacology Branch, DTP, NCI, 2023):
pIC50: −log10 of the molar value. Several values for one entry are separate records, joined by “and”; a condition that tells them apart may be missing. Equal values may be shown once.

System: LG0703-F498-PDC complex spheroid growth
Assay: Anticancer human tumor LG0703-F498-PDC patient-derived lung adenocarcinoma cell line growth inhibition [AhR]
Conditions: for viability, T/C: stronger effect = lower value
From the text: Multicellular complex tumor spheroid response to aryl hydrocarbon receptor antagonists in combination with a variety of drugs and investigational agents in selected tumor cell lines
The current study was undertaken to assess response to aryl hydrocarbon receptor antagonists in combination with standard-of-care drugs and investigational agents in solid tumor complex spheroid models. Complex spheroids include a stromal component modeled by human endothelial cells (HUVEC) and fibroblasts modeled by human mesenchymal stem cells (MSCs). The concentration ranges selected for each drug and investigational agent were based upon clinically achievable concentrations if the clinical Cmax of the agent was known.
Compounds. The drugs and investigational agents: BAY 2416964 (NSC825713), GNF351 (NSC835774), CH-223191 (NSC835775), CPI-455 (NSC825282), aza-TdCyd (NSC777586), decitabine (NSC127716), belinostat (NSC758774), entinostat (NSC756642), pevonedistat (NSC761192), tazemetostat (NSC777109), talazoparib (NSC765396), olaparib (NSC753686), selinexor (NSC780203), nedisertib (M3814, NSC802822), bortezomib (NSC756655), venetoclax (NSC766270), doxorubicin (NSC123127), elimusertib (BAY189344, NSC800525), ceralasertib (AZD6738, NSC777638), TAK-243 (NSC785004), alisertib (NSC759677), etoposide (NSC141540), topotecan (NSC609699), eribulin (NSC707389), gemcitabine (NSC613327), carboplatin (NSC241240), cisplatin (NSC119875), and SN-38 (NSC673596) were obtained from the National Cancer Institute (NCI) Developmental Therapeutics Program Chemical Repository (32). The FDA-approved anticancer drug set is available from the Developmental Therapeutics Program at https://dtp.cancer.gov/organization/dscb/obtaining/available plates.htm. […] The stock solutions were prepared in dimethyl sulfoxide (DMSO, Sigma-Aldrich, St. Louis, MO, cat. D2650), except for the platinum compounds which were prepared in saline (Quality Biological, Gaithersburg, MD, cat. 114-055-101), at 800-fold the tested concentration and stored at -70 degrees C prior to their use. All drugs and investigational agents were tested over a range starting from a high concentration at or near the clinical Cmax and decreasing in half-log increments. If the clinical Cmax for an agent had not been determined, the highest concentration tested was 10 microM (Table 1).
Cell Culture. All cells were maintained in an incubator at 37 degrees C and 5% CO2 with 95% humidity. The PDC lines were cultured according to standard operating procedures established by the NCI PDMR (https://pdmr.cancer.gov). Briefly, all PDCs were thawed and cultured in Matrigel-coated flasks prepared with a working solution of 1X Ham's F-12 nutrient mix, without supplementation (Invitrogen, Waltham, MA, cat. 11765054), 100 U/mL penicillin-streptomycin (Invitrogen, cat. 15140122), and 2.5% Matrigel (Corning Inc., Corning, NY, cat. 354248) for the first three passages. All PDCs were cultured in complete DMEM/F-12 media containing advanced DMEM/F-12 (Invitrogen, cat. 12634028), 4.9% defined fetal bovine serum, heat inactivated (HyClone Laboratories Inc., Logan, UT, cat. SH30070.03HI), 389 ng/mL hydrocortisone (Sigma-Aldrich, cat. H4001), 9.7 ng/mL human EGF recombinant protein (Invitrogen, cat. PHG0313), 23.4 microg/mL adenine (Sigma-Aldrich, cat. A2786), 97.3 U/mL penicillin-streptomycin (Invitrogen, cat. 15140122), 1.9 mM L-glutamine (Invitrogen, cat. 25030081), and 9.7 microM Y-27632 dihydrochloride (Tocris Bioscience, Bristol, United Kingdom, cat. 1254). The PDCs were cultured in complete DMEM/F12 media without 10 microM Y-27632 dihydrochloride for at least two passages prior to the screen. The established cell lines NCI-H1341 and […] were cultured in DMEM/F-12, HEPES (Invitrogen, cat. 11330032), 5% defined fetal bovine serum (HyClone Laboratories Inc., cat. SH30070.03), ITS premix universal culture supplement [insulin (5 microg/mL), transferrin (5 microg/mL), and selenious acid (5 ng/mL)] […]

[1] = curve of first compound, second compound 0.1 µM
[2] = curve of first compound, second compound 0.316 µM
[3] = curve of first compound, second compound 1 µM
[4] = curve of first compound, second compound 3.16 µM
[5] = curve of first compound, second compound 10 µM
[6] = second compound 0.1 µM, first compound 0.0316 µM
[7] = second compound 0.1 µM, first compound 0.1 µM
[8] = second compound 0.1 µM, first compound 0.316 µM
[9] = second compound 0.1 µM, first compound 1 µM
[10] = second compound 0.1 µM, first compound 3.16 µM
[11] = second compound 0.1 µM, first compound 10 µM
[12] = second compound 0.316 µM, first compound 0.0316 µM
[13] = second compound 0.316 µM, first compound 0.1 µM
[14] = second compound 0.316 µM, first compound 0.316 µM
[15] = second compound 0.316 µM, first compound 1 µM
[16] = second compound 0.316 µM, first compound 3.16 µM
[17] = second compound 0.316 µM, first compound 10 µM
[18] = second compound 1 µM, first compound 0.0316 µM
[19] = second compound 1 µM, first compound 0.1 µM
[20] = second compound 1 µM, first compound 0.316 µM
[21] = second compound 1 µM, first compound 1 µM
[22] = second compound 1 µM, first compound 3.16 µM
[23] = second compound 1 µM, first compound 10 µM
[24] = second compound 3.16 µM, first compound 0.0316 µM
[25] = second compound 3.16 µM, first compound 0.1 µM
[26] = second compound 3.16 µM, first compound 0.316 µM
[27] = second compound 3.16 µM, first compound 1 µM
[28] = second compound 3.16 µM, first compound 3.16 µM
[29] = second compound 3.16 µM, first compound 10 µM
[30] = second compound 10 µM, first compound 0.0316 µM
[31] = second compound 10 µM, first compound 0.1 µM
[32] = second compound 10 µM, first compound 0.316 µM
[33] = second compound 10 µM, first compound 1 µM
[34] = second compound 10 µM, first compound 3.16 µM
[35] = second compound 10 µM, first compound 10 µM
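Also: luminescence taken as a proxy for viable cell amount.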
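For viability, T/C in this document: percent of DMSO vehicle control where 100% means growth equal to vehicle.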

Structure (SMILES)	pIC50 [1]	pIC50 [2]	pIC50 [3]	pIC50 [4]	pIC50 [5]	viability, T/C [6]	viability, T/C [7]	viability, T/C [8]	viability, T/C [9]	viability, T/C [10]	viability, T/C [11]	viability, T/C [12]	viability, T/C [13]	viability, T/C [14]	viability, T/C [15]	viability, T/C [16]	viability, T/C [17]	viability, T/C [18]	viability, T/C [19]	viability, T/C [20]	further results
CC1(C)CCC(CN2CCN(c3ccc(C(=O)NS(=O)(=O)c4ccc(NCC5CCOCC5)c([N+](=O)[O-])c4)c(Oc4cnc5[nH]ccc5c4)c3)CC2)=C(c2ccc(Cl)cc2)C1 + Cc1cncc(-c2nc(NCCc3c[nH]c4ccccc34)c3ncn(C(C)C)c3n2)c1	5.08	5.15	5.10	7.50	> 7.50	112%	96.1%	106%	97%	87.8%	42.5%	120%	88%	101%	92.7%	88.4%	34.3%	116%	113%	95%	viability, T/C [21]: 103%; viability, T/C [22]: 97.7%; viability, T/C [23]: 37.8%; viability, T/C [24]: 48%; viability, T/C [25]: 49.5%; viability, T/C [26]: 54.6%; viability, T/C [27]: 43.3%; viability, T/C [28]: 52.1%; viability, T/C [29]: 24.7%; viability, T/C [30]: 1.31%; viability, T/C [31]: 1.08%; viability, T/C [32]: 1.56%; viability, T/C [33]: 1.25%; viability, T/C [34]: 1.72%; viability, T/C [35]: 4.35%
COc1cc(Nc2ncc3c(n2)-c2ccc(Cl)cc2C(c2c(F)cccc2OC)=NC3)ccc1C(=O)O + Cc1ccccc1N=Nc1ccc(NC(=O)c2ccnn2C)c(C)c1	< 5.00	5.27	5.22	5.39	5.30	93.2%	79.5%	60.5%	68.5%	67.9%	45.3%	84.4%	82.2%	70.9%	74%	57.7%	39.7%	86.6%	82.6%	65.4%	viability, T/C [21]: 65.3%; viability, T/C [22]: 54.2%; viability, T/C [23]: 46%; viability, T/C [24]: 73.9%; viability, T/C [25]: 71.8%; viability, T/C [26]: 61.3%; viability, T/C [27]: 62.5%; viability, T/C [28]: 53.8%; viability, T/C [29]: 40.8%; viability, T/C [30]: 70.9%; viability, T/C [31]: 61.5%; viability, T/C [32]: 62.5%; viability, T/C [33]: 70.4%; viability, T/C [34]: 55.7%; viability, T/C [35]: 38%
CC[C@@]1(O)C(=O)OCc2c1cc1n(c2=O)Cc2cc3c(CN(C)C)c(O)ccc3nc2-1																					viability, T/C (compound 0.000316 µM): 104% and 108% and 106%; viability, T/C (compound 0.001 µM): 112% and 105% and 93.5%; viability, T/C (compound 0.00316 µM): 100% and 102% and 95.9%; viability, T/C (compound 0.01 µM): 90.5% and 93.7% and 90%; viability, T/C (compound 0.0316 µM): 85.8% and 111% and 87.9%; viability, T/C (compound 0.1 µM): 68.1% and 69.4% and 73.8%; pIC50 (curve of compound): < 7.00
COc1ccc([C@@H](O)c2cc(-c3ncnc4cc(N5CCOCC5)ccc34)c(F)cc2Cl)nn1 + Cc1ccccc1N=Nc1ccc(NC(=O)c2ccnn2C)c(C)c1	5.34	5.54	5.41	5.59	5.72	93.9%	93.8%	88.3%	75.7%	61.2%	29%	83.3%	101%	91.1%	75%	48.5%	28.1%	87.3%	99.2%	86%	viability, T/C [21]: 79%; viability, T/C [22]: 55%; viability, T/C [23]: 28.5%; viability, T/C [24]: 89.8%; viability, T/C [25]: 83.9%; viability, T/C [26]: 78%; viability, T/C [27]: 68.1%; viability, T/C [28]: 45.2%; viability, T/C [29]: 23.8%; viability, T/C [30]: 75.5%; viability, T/C [31]: 93.6%; viability, T/C [32]: 80.8%; viability, T/C [33]: 57.9%; viability, T/C [34]: 42.5%; viability, T/C [35]: 15.6%
